Legend:
Assay type in all cases: physicochemical
[1] = UV–VIS spectra of E/Z isomers in DMSO; settings: for Δ λmax n→π*: between E and Z isomers
Method: For this purpose, the UV–VIS spectra were measured for all synthesized hybrids (17a–17l) at concentrations from 20 to 500 µM in dimethyl sulfoxide (DMSO) in light at λ 505 nm and for (17a–17c), (17e–17g), and (17i–17l) at λ 525 nm, respectively, as detailed in Table 1 (see Section S4.4 in Supplementary Materials).

Solubility in DMSO = test: Solubility in DMSO
[2] = Photostationary state (PSS) composition by 19F NMR; settings: irradiation 525 nm, DMSO-d6
Excerpt: Azo compounds have been applied in various fields due to their ability to undergo structural changes, with one of the most interesting applications being the direct conversion of light into mechanical energy. However, azobenzenes generally face two main limitations that hinder their practical use in biological and materials sciences. The first is the need for UV light to induce the E→Z isomerization through π→π* excitation, which can potentially interfere with and damage the surrounding environment. The second limitation is the typically incomplete reverse Z→E photoisomerization, which is induced by irradiation in the visible region. In this region, the n→π* bands of the E and Z isomers largely overlap, making it difficult to achieve E-rich photostationary states (PSSs) after back-switching. These limitations can be overcome by modifying azobenzene in such a way that the n→π* bands of the E and Z isomers are sufficiently separated. If the separation is large enough, the two n→π* bands can be distinct, allowing visible light to selectively isomerize both isomers with high to complete E/Z photoconversions. We are looking for switches that operate within the visible light range of 380–750 nm, which is harmless. Fluorine-substituted azobenzenes are well-suited for designing visible-light-responsive systems, offering stable and bidirectional photoconversions along with tissue-compatible properties. We confirmed that the compounds we synthesized successfully dock with tubulin. In the next step, we tested whether the added azo compound would meet our expectations as a visible light switch. For this purpose, we used NMR spectroscopy. We measured ^19F spectra of (17a–17c, 17e–17g, and 17i–17l) at nine wavelengths from 390 nm to 610 nm to check which wavelengths produce the most Z isomer after exposure (see Section S4.2 in Supplementary Materials). We selected DMSO as the solvent due to its ability to dissolve both polar and nonpolar molecules, which is essential for the analytical methods employed in this study. Its intermediate polarity also makes it a good surrogate for both organic and aqueous solvents. Additionally, DMSO is commonly used for preparing stock solutions, which are then illuminated and diluted into aqueous systems for assessing biological activity. […]
Figure 2 (a) Photostationary state (PSS) compositions for chalcones (17a–17c, 17e–17g, and 17i–17l) determined by ^19F NMR analysis (c ≈ 100 mM in DMSO-d6), presented in a bar chart; (b) representative multiple photoswitching rounds of 60 µM of (17j) in DMSO by pulsed green (525 nm) and blue (430 nm) light illumination. The photochemical stability of the drug is analyzed via repeated cycles of irradiation (software: Microsoft Excel).

[3] = Changes over time of Z to E transition by 19F NMR; settings: light 525 nm, 100 mM in DMSO
Excerpt: We can observe that for electromagnetic radiation in the range of wavelengths 390 nm to 610 nm, transitions from E to Z of about 0–76% are obtained. The best results for all compounds are in visible wavelengths 505 nm or 525 nm (30.59–75.44%). From analyzing Figure 2 we can draw the following conclusions: all synthesized compounds undergo switching under visible light (this is important because UV radiation can damage the DNA of cells, inhibiting replication and, as a result, preventing cell division). For the 2,6-difluoro substituents (17i), (17j), (17k), and (17l) with values of 74.84%, 73.2%, 74.39%, and 75.44%, respectively, the largest share of the Z configuration is at (525 nm) and, for the rest of (17a), (17b), (17c), (17e), (17f), and (17g), it is in range of 30.57–47.13% at 505 nm. […] Multiple cycles of photoreversible switching under alternating green and blue light irradiation, with no significant photobleaching or degradation, confirmed the repeatable and robust photochromic conversion of the synthesized azobenzenes (Figure 2b). Then we measured changes over time (transitions from Z to E, upon irradiation with 505 nm for (17a–17c) and (17e–17g), and 525 nm for (17i–17l) compounds (Figure 3, and see Section S4.3 in Supplementary Materials).

SMILES | εmax (n→π*) ([1]; E isomer) | λmax n→π* (E) ([1]; E isomer) | εmax (n→π*) ([1]; Z isomer) | λmax n→π* (Z) ([1]; Z isomer) | Δ λmax n→π* [1] | solubility in DMSO (Solubility in DMSO) | share of the Z configuration (PSS) [2] | Z isomer, changes over time ([3]; 0 h) | Z isomer, changes over time ([3]; 1 h) | Z isomer, changes over time ([3]; 2 h) | Z isomer, changes over time ([3]; 3 h) | Z isomer, changes over time ([3]; 4 h) | Z isomer, changes over time ([3]; 5 h) | Z isomer, changes over time ([3]; 6 h) | Z isomer, changes over time ([3]; 7 h) | Z isomer, changes over time ([3]; 8 h) | Δ (Z to E change 0 h to 8 h) [3]
O=C(/C=C/c1ccc(Br)cc1)c1cccc(/N=N/c2ccc(F)cc2)c1 [Compound 17d] | 660 dm^3·mol^−1·cm^−1 | 440.8 nm | 850 dm^3·mol^−1·cm^−1 | 434.1 nm | 6.7 nm | poorly soluble |  |  |  |  |  |  |  |  |  |  | 
COc1ccc(/C=C/C(=O)c2cccc(/N=N/c3c(F)cccc3F)c2)cc1OC [Compound 17i] |  |  |  |  |  |  | 74.84% | 74.84% | 73.32% | 72.17% | 70.9% | 69.59% | 68.98% | 68% | 67.46% | 66.19% | 8.65%
COc1cc(/C=C/C(=O)c2cccc(/N=N/c3c(F)cccc3F)c2)cc(OC)c1OC [Compound 17k] |  |  |  |  |  |  | 74.39% | 74.39% | 74.02% | 72.48% | 72.26% | 70.95% | 70.43% | 69.33% | 67.93% | 67.18% | 7.21%

Further lines, results first:

εmax (n→π*) ([1]; E isomer) | λmax n→π* (E) ([1]; E isomer) | εmax (n→π*) ([1]; Z isomer) | λmax n→π* (Z) ([1]; Z isomer) | Δ λmax n→π* [1] | solubility in DMSO (Solubility in DMSO) | share of the Z configuration (PSS) [2] | Z isomer, changes over time ([3]; 0 h) | Z isomer, changes over time ([3]; 1 h) | Z isomer, changes over time ([3]; 2 h) | Z isomer, changes over time ([3]; 3 h) | Z isomer, changes over time ([3]; 4 h) | Z isomer, changes over time ([3]; 5 h) | Z isomer, changes over time ([3]; 6 h) | Z isomer, changes over time ([3]; 7 h) | Z isomer, changes over time ([3]; 8 h) | Δ (Z to E change 0 h to 8 h) [3] | SMILES
796 dm^3·mol^−1·cm^−1 | 441.2 nm | 1016 dm^3·mol^−1·cm^−1 | 426.9 nm | 14.3 nm | poorly soluble |  |  |  |  |  |  |  |  |  |  |  | O=C(/C=C/c1ccc(Br)cc1)c1cccc(/N=N/c2ccc(F)cc2F)c1 [Compound 17h]
902 dm^3·mol^−1·cm^−1 | 448.6 nm | 1074 dm^3·mol^−1·cm^−1 | 417.9 nm | 30.7 nm |  | 75.44% | 75.44% | 74.04% | 72.7% | 71.56% | 70.77% | 69.92% | 68.63% | 67.93% | 67.78% | 7.66% | O=C(/C=C/c1ccc(Br)cc1)c1cccc(/N=N/c2c(F)cccc2F)c1 [Compound 17l]
